Drawing on ChEMBL document CHEMBL1201862, “PubChem BioAssay data set” (2004), this text covers AC50, EC50 and IC50 for twelve compounds.

Activity calls are given as the source filed them. Some results are limits rather than exact numbers.

The target of assay [1] is FAD-linked sulfhydryl oxidase ALR (Homo sapiens, UniProt P55789). Briefly: ALR-catalysed DTT oxidation blockers – biochemical, H2O2 detection, luminescence, cherry-pick, dose response (AID 493248).
The test system of another assay is Escherichia coli. In words: microbe, parasite or virus in culture.
Assay [2] has as its target T1, Endoribonuclease toxin MazF (Escherichia coli K-12, UniProt P0AE70).
T1 sequence (P0AE70 whole entry): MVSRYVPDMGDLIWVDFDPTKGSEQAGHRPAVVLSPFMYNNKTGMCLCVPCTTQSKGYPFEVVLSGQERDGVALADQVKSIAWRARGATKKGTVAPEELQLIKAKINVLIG
Briefly: activation of MazEF endoribonuclease cleavage – biochemical, fluorescence, single-stranded RNA substrate, uHTS hits, dose response (AID 588481). Format: functional.

Assay [3] deals with T1, Endoribonuclease toxin MazF. Briefly: substrate-only fluorescence increase artefacts – biochemical, single-stranded RNase substrate, counter-screen for MazEF activator project, dose response (AID 588502). It counts as functional. (In general: The purpose of a counterscreen is to sort out artefacts and off-target activity.)
A short description of assay [4]: Luminescence Cell-Based Dose Retest to Confirm Inhibitors of Cancer Stem Cells. [Related pubchem assays (depositor defined):AID2717, AID2721]. It counts as functional. The conditions noted are these: Homo sapiens.
A short description of assay [5]: viability loss of HMLE_sh_eGFP cells – cell-based, luminescence, counter-screen for HMLE_sh_ECad selective toxicity project, dose response (AID 463074).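 Further: HMLE human mammary epithelial cells expressing control shRNA against eGFP.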 It counts as functional, Homo sapiens.
Assay [6] has as its target Voltage-gated inwardly rectifying potassium channel KCNH2 (Homo sapiens, UniProt Q12809). The conditions noted are these: Potency.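 Further: confirmatory quantitative high-throughput screen measuring inhibition of hERG channel activity.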
Assay [7] has as its system Streptococcus sp. 'group A'. In words: Streptococcus pyogenes SK(-)GAS viability under kanamycin – luminescence, BacTiterGlo, confirmation, counter-screen for streptokinase expression inhibitor project, dose response (AID 1900). It counts as functional, organism-based.
In another assay the target is T2, Streptokinase A (Streptococcus pyogenes serotype M1, UniProt P10520).
T2 sequence (P10520 whole entry): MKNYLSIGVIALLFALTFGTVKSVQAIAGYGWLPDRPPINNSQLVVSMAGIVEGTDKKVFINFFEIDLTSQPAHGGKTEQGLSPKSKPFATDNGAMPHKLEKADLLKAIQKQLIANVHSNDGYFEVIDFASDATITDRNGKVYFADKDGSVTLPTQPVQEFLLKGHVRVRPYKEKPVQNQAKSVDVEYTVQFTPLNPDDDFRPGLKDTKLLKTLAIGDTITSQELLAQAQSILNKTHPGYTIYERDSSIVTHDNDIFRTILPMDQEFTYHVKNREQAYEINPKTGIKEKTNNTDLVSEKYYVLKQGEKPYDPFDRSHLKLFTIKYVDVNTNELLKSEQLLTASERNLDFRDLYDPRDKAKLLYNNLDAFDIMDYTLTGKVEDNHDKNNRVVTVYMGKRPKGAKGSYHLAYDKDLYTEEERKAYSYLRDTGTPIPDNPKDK
In words: viability-normalized secreted streptokinase activity reduction – plasminogen activation absorbance, OD405, dose response (AID 1914).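 Further: secreted streptokinase activity via plasminogen activation per viability signal from cell pellet.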 It counts as functional, Streptococcus pyogenes M1 GAS.

Another assay has as its system Streptococcus. Briefly: GAS UMAA2166 growth inhibition – luminescence, BacTiterGlo, counter-screen for streptokinase expression inhibitor project, dose response (AID 1915).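 Further: potency for reduction of bacterial viability or growth.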 It counts as functional, organism-based.
Assay [8] addresses Lysine-specific demethylase 4A (Homo sapiens, UniProt O75164). In words: inhibition of JMJD2A H3K9me3 demethylation – biochemical, DELFIA europium, cherry-picked samples, selectivity assay for GASC-1 inhibitor project, dose response (AID 488840).
The target in assay [9] is T3, Lysine-specific demethylase 4C (Homo sapiens, UniProt Q9H3R0).
T3 sequence (Q9H3R0 whole entry): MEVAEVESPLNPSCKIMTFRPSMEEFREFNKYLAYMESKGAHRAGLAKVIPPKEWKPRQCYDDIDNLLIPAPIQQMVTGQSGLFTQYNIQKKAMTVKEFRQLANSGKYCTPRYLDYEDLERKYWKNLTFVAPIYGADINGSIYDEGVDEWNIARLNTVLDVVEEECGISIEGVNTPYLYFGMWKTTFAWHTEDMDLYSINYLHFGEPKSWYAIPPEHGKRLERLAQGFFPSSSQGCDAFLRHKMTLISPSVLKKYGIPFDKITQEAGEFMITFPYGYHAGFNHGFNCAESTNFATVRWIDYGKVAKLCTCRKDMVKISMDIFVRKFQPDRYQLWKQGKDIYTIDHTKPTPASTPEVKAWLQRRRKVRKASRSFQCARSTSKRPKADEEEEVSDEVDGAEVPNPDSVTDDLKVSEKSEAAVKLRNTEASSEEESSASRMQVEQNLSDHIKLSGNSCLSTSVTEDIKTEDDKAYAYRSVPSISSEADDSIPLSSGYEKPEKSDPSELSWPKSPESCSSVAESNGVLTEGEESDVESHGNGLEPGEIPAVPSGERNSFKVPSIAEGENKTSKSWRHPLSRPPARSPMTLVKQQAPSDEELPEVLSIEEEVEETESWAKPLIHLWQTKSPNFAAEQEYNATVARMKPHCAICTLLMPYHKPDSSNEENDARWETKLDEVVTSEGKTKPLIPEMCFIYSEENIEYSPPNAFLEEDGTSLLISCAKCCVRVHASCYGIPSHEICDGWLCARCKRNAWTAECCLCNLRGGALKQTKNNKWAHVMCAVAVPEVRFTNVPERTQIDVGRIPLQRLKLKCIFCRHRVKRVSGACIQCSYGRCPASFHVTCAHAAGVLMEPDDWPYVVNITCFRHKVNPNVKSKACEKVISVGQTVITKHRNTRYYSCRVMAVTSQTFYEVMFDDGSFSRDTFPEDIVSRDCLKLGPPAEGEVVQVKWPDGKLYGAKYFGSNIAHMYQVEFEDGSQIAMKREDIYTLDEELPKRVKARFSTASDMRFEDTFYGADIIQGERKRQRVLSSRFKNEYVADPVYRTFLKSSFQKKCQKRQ
Briefly: inhibition of JMJD2C H3K9me3 demethylation – biochemical, DELFIA europium, cherry-picked samples, dose response (AID 488835). Format: functional.

The target of assay [10] is T4, Carboxy-terminal domain RNA polymerase II polypeptide A small phosphatase 1 (Homo sapiens, UniProt Q9GZU7).
T4 sequence (Q9GZU7 whole entry): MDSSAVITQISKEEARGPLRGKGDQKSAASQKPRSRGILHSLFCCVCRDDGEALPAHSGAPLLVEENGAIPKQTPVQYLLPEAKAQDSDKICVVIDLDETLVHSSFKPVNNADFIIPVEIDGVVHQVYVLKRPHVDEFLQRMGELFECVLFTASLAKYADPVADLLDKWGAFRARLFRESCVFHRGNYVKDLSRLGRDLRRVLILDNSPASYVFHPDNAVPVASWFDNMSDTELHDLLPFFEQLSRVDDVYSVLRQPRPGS
In words: CTDSP1 inhibitors, concentration-response, biochemical, absorbance readout, ultra-high-throughput screen actives (AID 540297). It counts as functional.

For a further assay, the target named is Albumin (Bos taurus, UniProt P02769). In words: Counterscreen for inhibitors of T-cell receptor (TCR)-CD3 interaction: Fluorescence-based biochemical high throughput dose response assay to identify inhibitors of T-cell receptor (TCR)-CD3 interaction using a TAMRA-labeled BSA probe. It counts as functional.
Chain of Albumin (P02769 whole entry, the tested form may be a part): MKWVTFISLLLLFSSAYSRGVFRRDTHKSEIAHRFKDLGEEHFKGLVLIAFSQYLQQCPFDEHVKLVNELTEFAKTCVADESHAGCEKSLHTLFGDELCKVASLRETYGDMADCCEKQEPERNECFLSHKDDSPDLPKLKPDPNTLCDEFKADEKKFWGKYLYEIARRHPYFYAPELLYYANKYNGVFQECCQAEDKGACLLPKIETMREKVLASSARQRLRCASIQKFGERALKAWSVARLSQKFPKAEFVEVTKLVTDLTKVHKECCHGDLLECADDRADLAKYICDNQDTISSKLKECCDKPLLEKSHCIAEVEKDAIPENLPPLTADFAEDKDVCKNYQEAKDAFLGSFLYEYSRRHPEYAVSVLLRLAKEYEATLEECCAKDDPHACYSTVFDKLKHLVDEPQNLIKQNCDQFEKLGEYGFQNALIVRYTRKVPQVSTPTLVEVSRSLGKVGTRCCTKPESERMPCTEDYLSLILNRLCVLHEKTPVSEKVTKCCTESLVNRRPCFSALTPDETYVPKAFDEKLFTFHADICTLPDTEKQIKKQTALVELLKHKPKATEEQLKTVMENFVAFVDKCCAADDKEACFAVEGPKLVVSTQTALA
Assay [11] in a line: blockers of HIV-1 envelope-mediated cell-cell fusion – cherry-pick, dose response (AID 652057). It counts as functional, cell-based.
Assay [12] in a line: blockers of HIV-1 ZM109 envelope-driven cell-cell fusion – HeLa effector, CEM target cells, luciferase, cherry-pick, dose response (AID 652058).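 Further: luciferase signal from HIV-1 Env mediated cell-cell fusion of effector and target cells.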 It counts as functional, cell-based.
Assay [13] in a line: off-target signal loss in HeLa-CEM21 co-culture – HeLa F-luc CTL cells, cherry-picked, counter-screen for HIV-1 Env fusion inhibitor project, dose response (AID 652040).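 Further: potency for signal decrease marking cytotoxic or nonspecific inhibition.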 It counts as functional, cell-based.
A short description of assay [14]: HIV-1 AD8 envelope cell-cell fusion blockers – cherry-pick, dose response (AID 652062).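 Further: luciferase signal from cell-cell fusion driven by HIV-1 clade B AD8 Env; potency is for inhibitors of fusion seen as a drop in luminescence.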 Format: functional, cell-based.
Assay [15] relates to HEK293. In words: cells. Particulars: Homo sapiens.
The subject of assay [16] is HEK293. Briefly: cells. The conditions noted are these: Homo sapiens. This is another data set of the same source.
Assay [17] in a line: Fluorescence-based cell-based high throughput dose response assay for inhibitors of the interaction of nucleotide-binding oligomerization domain containing 2 (NOD2) and the receptor-interacting serine-threonine kinase 2 (RIPK2). Particulars: Homo sapiens. Format: functional.
In the next assay the target is CAAX prenyl protease 2 (Homo sapiens, UniProt Q9Y256). Briefly: inhibition of Ras-converting CAAX protease Rce1 – biochemical, yeast membranes, quenched-peptide fluorescence, cherry-pick, dose response (AID 588849).
Chain of CAAX prenyl protease 2 (Q9Y256 whole entry): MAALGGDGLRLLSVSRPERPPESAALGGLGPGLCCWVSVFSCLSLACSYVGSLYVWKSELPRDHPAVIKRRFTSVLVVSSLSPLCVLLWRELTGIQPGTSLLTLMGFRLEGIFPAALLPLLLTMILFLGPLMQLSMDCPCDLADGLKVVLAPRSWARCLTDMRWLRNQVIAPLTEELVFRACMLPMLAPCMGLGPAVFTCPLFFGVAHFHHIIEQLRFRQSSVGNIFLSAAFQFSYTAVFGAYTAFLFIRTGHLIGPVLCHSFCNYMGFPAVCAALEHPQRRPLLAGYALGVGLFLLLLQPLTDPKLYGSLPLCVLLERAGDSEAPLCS

For orientation: AC50 means the midpoint of the concentration-response curve, whichever way the signal moves. A word on the EC50: it is the midpoint of the concentration-response curve. The term IC50 denotes the concentration that inhibits the measured activity by half.

Chain of Voltage-gated inwardly rectifying potassium channel KCNH2 (Q12809 whole entry): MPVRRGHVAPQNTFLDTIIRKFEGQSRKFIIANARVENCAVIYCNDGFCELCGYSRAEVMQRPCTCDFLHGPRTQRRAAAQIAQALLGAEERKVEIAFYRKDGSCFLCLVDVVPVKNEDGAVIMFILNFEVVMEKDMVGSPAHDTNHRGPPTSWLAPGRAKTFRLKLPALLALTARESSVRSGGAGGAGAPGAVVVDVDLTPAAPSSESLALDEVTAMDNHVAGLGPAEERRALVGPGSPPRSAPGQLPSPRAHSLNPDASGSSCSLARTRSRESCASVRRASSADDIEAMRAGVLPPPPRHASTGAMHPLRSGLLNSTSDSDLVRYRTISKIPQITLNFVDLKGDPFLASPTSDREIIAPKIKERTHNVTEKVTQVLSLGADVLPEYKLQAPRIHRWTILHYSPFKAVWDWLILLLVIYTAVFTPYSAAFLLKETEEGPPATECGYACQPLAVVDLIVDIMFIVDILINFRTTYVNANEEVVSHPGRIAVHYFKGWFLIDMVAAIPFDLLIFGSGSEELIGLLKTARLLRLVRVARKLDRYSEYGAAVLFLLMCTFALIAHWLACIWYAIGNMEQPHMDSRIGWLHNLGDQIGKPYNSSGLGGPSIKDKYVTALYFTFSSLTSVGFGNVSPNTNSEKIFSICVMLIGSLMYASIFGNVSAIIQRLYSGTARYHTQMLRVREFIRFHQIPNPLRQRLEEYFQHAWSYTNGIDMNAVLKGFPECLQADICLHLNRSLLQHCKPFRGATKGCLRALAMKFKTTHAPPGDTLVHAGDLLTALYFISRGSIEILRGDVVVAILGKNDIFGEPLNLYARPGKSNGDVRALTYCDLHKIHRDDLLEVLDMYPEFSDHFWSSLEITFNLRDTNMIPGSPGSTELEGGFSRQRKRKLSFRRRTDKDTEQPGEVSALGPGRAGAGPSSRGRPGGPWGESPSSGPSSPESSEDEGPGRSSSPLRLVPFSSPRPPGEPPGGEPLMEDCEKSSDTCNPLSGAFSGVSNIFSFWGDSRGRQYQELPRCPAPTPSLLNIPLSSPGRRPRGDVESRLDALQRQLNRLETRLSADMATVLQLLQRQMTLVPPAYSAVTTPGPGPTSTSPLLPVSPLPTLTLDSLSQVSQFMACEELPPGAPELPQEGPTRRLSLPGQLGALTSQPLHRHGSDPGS
Chain of FAD-linked sulfhydryl oxidase ALR (P55789 whole entry): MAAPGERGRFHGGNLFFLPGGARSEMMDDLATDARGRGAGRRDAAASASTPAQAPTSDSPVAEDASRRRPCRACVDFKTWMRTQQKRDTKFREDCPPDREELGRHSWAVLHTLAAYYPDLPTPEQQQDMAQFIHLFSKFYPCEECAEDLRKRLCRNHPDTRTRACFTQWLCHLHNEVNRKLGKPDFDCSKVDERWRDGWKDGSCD
Chain of Lysine-specific demethylase 4A (O75164 whole entry): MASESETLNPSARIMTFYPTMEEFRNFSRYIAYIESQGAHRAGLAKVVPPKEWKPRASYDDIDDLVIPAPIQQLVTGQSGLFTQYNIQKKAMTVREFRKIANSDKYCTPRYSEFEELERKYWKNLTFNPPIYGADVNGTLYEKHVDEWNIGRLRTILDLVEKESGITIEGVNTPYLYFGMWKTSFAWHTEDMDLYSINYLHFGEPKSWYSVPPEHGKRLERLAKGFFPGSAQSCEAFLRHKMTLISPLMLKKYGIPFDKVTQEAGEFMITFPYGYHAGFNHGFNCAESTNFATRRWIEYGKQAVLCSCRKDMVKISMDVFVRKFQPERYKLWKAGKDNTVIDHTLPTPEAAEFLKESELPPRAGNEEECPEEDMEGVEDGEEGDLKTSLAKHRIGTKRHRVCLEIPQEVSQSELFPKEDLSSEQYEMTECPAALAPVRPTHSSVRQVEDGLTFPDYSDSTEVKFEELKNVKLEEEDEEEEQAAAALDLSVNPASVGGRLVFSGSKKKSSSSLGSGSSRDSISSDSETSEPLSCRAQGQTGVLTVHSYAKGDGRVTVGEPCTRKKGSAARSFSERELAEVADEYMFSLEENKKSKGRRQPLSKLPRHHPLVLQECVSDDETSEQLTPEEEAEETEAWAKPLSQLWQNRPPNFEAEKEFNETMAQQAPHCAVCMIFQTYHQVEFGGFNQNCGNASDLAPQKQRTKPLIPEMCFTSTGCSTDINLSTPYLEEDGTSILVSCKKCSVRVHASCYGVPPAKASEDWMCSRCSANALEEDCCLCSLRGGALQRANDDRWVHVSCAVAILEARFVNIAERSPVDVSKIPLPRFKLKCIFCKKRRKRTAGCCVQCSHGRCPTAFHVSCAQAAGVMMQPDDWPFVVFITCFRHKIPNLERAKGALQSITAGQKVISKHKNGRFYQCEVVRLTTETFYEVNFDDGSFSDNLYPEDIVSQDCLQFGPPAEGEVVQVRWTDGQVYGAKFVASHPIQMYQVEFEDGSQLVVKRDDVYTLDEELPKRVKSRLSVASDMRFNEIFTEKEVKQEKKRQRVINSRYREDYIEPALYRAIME

Regarding `Cc1ccc(SCc2noc(C(=O)NC(C)C)c2C(=O)O)cc1C`, the AC50 in [1] is 4.26 µM (active); in the assay with Escherichia coli it was 65.6 µM (active).

`Cc1cccc(N=Nc2c(O)[nH]c3ccc(F)cc23)c1`: the EC50 in assay [2] was 38.7 µM (inactive); in assay [3], > 99 µM (inactive).

For the compound `Cc1ccc(CSc2ccc(-c3ccc4c(c3)OCO4)nn2)cc1`, the AC50 in assay [4] was 1.46 µM (active); in assay [5] it was 43.6 µM (active).

In the case of `CC(C=O)Cc1ccc(C(C)(C)C)cc1` (stereo not given), the AC50 in assay [6] is 50.1 µM (inconclusive).

Regarding `CC(C)(C)c1ccc(OCC(O)CS(=O)(=O)c2ccccn2)cc1` (stereo not given), the EC50 (in assay [7]; on Streptokinase A; with Streptococcus) was > 150 µM (not active) each time. For the same compound, in the assay with Escherichia coli, the AC50 is 23.7 µM (active).

Take `Cc1ccc(C(=O)NNC(=O)c2ccc3ccccc3c2O)cc1`: the AC50 in [8] is 6.59 µM (active); in assay [9], 8.8 µM (active). The IC50 was 7.74 µM (active) in assay [10] and > 94 µM (inactive) at Albumin.

On to `CCN(C[C@H]1N[C@@](CC)(C(=O)OC)[C@H]2C(=O)N(Cc3ccccc3)C(=O)[C@@H]12)S(=O)(=O)c1ccc(C)cc1`, for which the AC50 in assay [11] was 2.36 µM (active); in assay [12], 2.37 µM (active); in [13], 3.4 µM (active); in [14] it was 4.32 µM (active). Further, the EC50 in the assay with HEK293 [15] and in the assay with HEK293 [16] was > 59.6 µM (inactive) throughout.

With `COc1cccc(-c2sc3ccc(OC)cc3c2-c2ccc(OCCN3CCOCC3)cc2)c1`, the AC50 in [4] is 2.09 µM (active); in [5], 3.73 µM (inconclusive).

Take `CN(N=Cc1ccc([N+](=O)[O-])cc1)c1ccccn1`: the EC50 in assay [2] was 51.8 µM (inactive); in assay [3] it was 37.8 µM (inactive).

As to `O=[N+]([O-])c1ccc(Sc2ccncn2)c([N+](=O)[O-])c1`, the IC50 in assay [17] is 7.56 µM (active). Besides, the EC50 with HEK293 [15] and in the assay on HEK293 [16] was > 59.6 µM (inactive) throughout.

Regarding `CCN(CC)c1ccc(/C=N/NC(=O)C(O)(c2ccccc2)c2ccccc2)o1`, the AC50 at CAAX prenyl protease 2 was > 100 µM (inactive).

Turning to `NC(Cc1ccc(N(CCCl)CCCl)cc1)C(=O)O` (stereo not given) [SARCOLYSIN], the AC50 in [6] was 35.5 µM (inconclusive).
